Laboratory results reported in US8476317B2, “N-alkylcarbonyl-amino acid ester compounds and their use for cough and pharyngitis” (priority 2011, dated 2013).

Tests used:
ocular surface = test: Eye wipe test, duration of cooling on ocular surface; format: in vivo, human; conditions: eye wipes 1 mg/ml in 5%-95% v/v ethanol-distilled water
Procedure: To further document the activities fo the test molecules, the results from an eye wipe test was included. Here the test substance is applied to the closed eyelids with a towelette at a concentration of 1 mg/ml in 5%-ethanol-95%-distilled water vol/vol and the duration of cooling on the ocular surface was recorded. […] It is likely that the mucous membranes that line the ocular surface and the pharynx have similar sensory mechanisms that are somewhat different from the philtrum skin which is keratinized.

cough = format: in vivo, human
Procedure: In 20 trials, 10 trials per subject, two mg of 95%+ pure powder of a D-Ala ethyl compound (No. 2 in Table 1, (R)-2-[((1R,2S,5R)-2-isopropyl-5-methyl-cyclohexanecarbonyl)-amino]-propionic acid ethyl ester)) of Formula (1) was placed on the mid-portion of the tongue of these two subjects. Both subjects reported relief from the desire to cough within 1 minute after application. Sensations of robust coolness in the back of the throat was noted and lasted for about 30 minutes. Applications of similar amounts of powdered sugar were not effective. The placebo could be clearly distinguished from the active compound because of the absence of cooling sensations.
A person with a documented 31-year history of asthma attacks volunteered to test one of the compounds falling within Formula (1). They were extremely sensitive to agents such as tobacco smoke, dust, pollen, odors, down/woolen materials, house cleansing products, pets, and sudden change of air temperature, and reacted with violent coughing, mucus secretions, wheezing, choking, and shortness of breath. At the time of this trial, they were taking these medications for their condition: theophylline, Allegra®, Advair®, Intal®, and Singulair®. In 5 trials, during a coughing spree, they placed one to two mg of 95%+ pure powder of a D-Ala ethyl ester (No. 2 in Table 1, ((R)-2-[((1R,2S,5R)-2-isopropyl-5-methyl-cyclohexanecarbonyl)-amino]-propionic acid ethyl ester))) of Formula (1) on the mid-portion of their tongue. They reported a soothing and cool sensation with a slight taste similar to Eucalyptus oil in their mouth and throat. Coughing stopped after 3 to 5 minutes and breathing was normal. […] In three trials when the compound was applied at night, they slept through the night without being awakened by cough. Their spouse remarked that, in over 30 years of marriage, this was the first time that they had seen an effective medication for their cough. They noted that the irritative signals of cough were absent in the presence of the applied chemical, but they still sensed a mechanical build up of secretions in their airways and could voluntarily cough up such secretions if necessary. They continue to use the test compound for management of their asthma, with the knowledge and consent of their physician.
A person had adult-onset asthma for 20 years. Triggers for attacks were tobacco smoke, dust, and changes in air temperature. They used Foradil® (formoterol fumarate) and Asmanex® (mometasone fuorate) twice a day to control their asthma, and monitored their pulmonary function with a portable device for measuring peak expiratory flow. They had daily episodes of both productive and non-productive cough. In 5 trials, when they felt throat irritation and a desire to cough, placement of 1 to 3 mg of (R)-2-[((1R,2S,5R)-2-isopropyl-5-methyl-cyclohexanecarbonyl)-amino]-propionic acid ethyl ester) (No. 2 in Table 1) provided rapid relief and was described as soothing and removed “tightness” in the chest. Peak expiratory flow improved from 320 Umin to 370 Umin. […] The subjective response to the long-acting NACE compound was definitely favourable. The subject remarked that the best time to use the NACE compuound was after inhaling the crystalline Foradil® because this inhaled drug irritated their throat.
ODT containing 2.0 to 2.5 mg of D-Aa Me Ester, D-Ala Et Ester, or D-Ala iPr Ester (identified chemically in Table 1 as No. 1, No. 2, and No. 3, respectively) were prepared using mannitol/maltitol as the excipient and stored in tic-tac boxes each containing 10 tablets. Over a course of two years, 14 adult males with cough tested these tablets. The causes of coughing were colds/flu, allergies, pharyngitis, excessive smoking, and two cases of gastroesophageal reflux. These individuals all had advanced degrees (M.D. or Ph.D.) and were motivated to try the tablets by scientific curiosity or because of financial interests in drug development, or, in several cases, by the annoyance caused by the cough. […]

philtrum skin [1] = test: Cooling on facial (philtrum) skin, ointment; format: in vivo, human; conditions: for Philtrum Skin (min), duration of cooling: 5 mg/ml in Aquaphor ointment
Excerpt: A reliable place for topical application is the skin above the upper lip (above the vermilion border of the lips), on the philtrum, lateral to the philtrum until the nasolabial folds, and on the lower nostrils (subnasale). This part of the face is known to be densely innervated with cold receptors, second only to the surfaces of the eyeball and anogenitalia. At this locus, tingling, cool and cold sensations in the skin may be experienced and rated for time of onset and intensity.
The intervals for recording sensations are 5 to 10 minutes, until two successive zeroes are obtained. The results (shown in FIG. 1) are averaged values of 4 to 6 separate trials in the same individual. The data are plotted using SigmaPlot® (Systat Software, Point Richmond Calif.) and a smoothing function with a negative exponential was used for analysis and statistical fit of the results. Confirmatory trials of cooling action of the long-acting NACE compounds were obtained in 2 to 4 individuals but not quantified for some because of the large number of chemicals that were evaluated.
(§1) The onset of drug action is taken as the time to reach 2 units of coolness intensity, and offset of drug action is the time when coolness intensity drops below 2, after previously surpassing 2 units. The duration of cooling action is defined as the offset time minus the onset time. […] The quality of the sensation is noted, for example, as pure refreshing coolness, or if the sensation is accompanied by irritation (stinging or burning). The quality of the sensation is not rated for intensity.
For bioassay on the skin, approximately 30 mg was stirred and dissolved in 3 g of warm liquid Aquaphor® ointment to a yield a 40 mM (˜1% wt/vol) ointment. The exact amount was adjusted so that the molar equivalent was about 35 to 40 mM. After cooling, 40 to 70 mg of the solid ointment was placed on the tip of a plastic stick and applied to the skin above the upper lip, on the philtrum, and lateral to the philtrum, up to the nasolabial folds, of test subjects and the onset and duration of cooling sensations noted.
The intervals for recording sensations were 5 to 10 minutes, until two successive zeroes were obtained. The results (shown in FIG. 1) are averaged values of 4 to 6 separate trials in the same individual. The data are plotted using SigmaPlot® (Systat Software, Point Richmond, Calif., USA) and a smoothing function with a negative exponential was used for analysis and statistical fit of the results.
as §1, with “was” for “is”, “was also noted: such” for “is noted, for example,”
In the results of FIG. 1, the test compounds were singly applied to the skin above the upper lips as a ˜1% wt/vol (10 mg/ml) ointment. Subsequently, for the results shown in Table 3, the test dose on the philtrum was reduced to a 0.5% wt/vol (5 mg/ml) ointment. The reason for choosing a lower dose was to increase the number of trials per individual and to have a reduced chance of substances accumulating in the skin.

pharyngeal surface = test: Chili-pepper sauce cough challenge test; format: in vivo, human; parameters: key: If there is no attenuation of the challenge stimuli, the score is 0; if there is partial inhibition, the score is +; if there is complete attenuation of the cough signal, the score is ++; conditions: challenge 45 to 50 min after ODT containing 2 mg of test substance
Excerpt: A number of cough challenge methods have been devised for evoking the cough reflex (Morice et al. Briti. J. Clin. Pharmacol. 52: 365-375, 2001). Usually, citric acid or capsaicin is delivered via the inhalation route to volunteers and the number of coughs counted. […] The chili pepper sauce used here is called Yank Sing® Chili Pepper Sauce (YS Gourmet Productions, Inc., PO Box 26189, San Francisco, Calif. 94126) and is a well-known condiment for use with dim sum (Chinese tea lunch). The sensations associated with the chili pepper sauce are located in the back of the mouth and are clearly recognized and associated with a desire to clear the throat. […] To test for anti-cough activity the ODT with the test substance is first administered onto the dorsal surface of the tongue and 45 to 50 min afterwards the chili-pepper sauce test is administered. If there is no attenuation of the challenge stimuli, the score is 0, if there is partial inhibition, the score is +, and if there is complete attenuation of the cough signal, the score is ++. In the presence of an ODT that results in a ++ score, the irritative signals are completely absent, yet the salty taste used in the soy sauce of the condiment can still be easily tasted. The test substances in the ODT that produced a ++ score were then identified and further tested for effectiveness in the treatment of cough.

oral cavity / oropharynx = test: Cooling in oral cavity after application on dorsal surface of tongue; format: in vivo, human; conditions: for sensory irritation in oral cavity: 2 to 5 mg on tongue
Procedure: The subject is instructed to close and hold the substance in the mouth for at least 10 seconds and not to swallow. The description of sensations is then recorded at 5 to 10 minute intervals.
The compounds of Formula 1 are white crystalline solids at room temperatures. These compounds were tested as the pure powder (>95% purity, by HPLC analysis), or mixed 1:1 with powdered or granulated sugar. The test substances were applied at 2 to 5 mg on the mid-point of the dorsal surface of the tongue using a metal spatula or a plastic applicator. After depositing the test substance on the tongue, the subject was instructed to keep the mouth closed and allow the fluids of the mouth to inter-mix with the test substance and to distribute it to the back of the mouth (oropharynx). The presence and duration of subjective sensations from the mouth was then recorded.

philtrum skin [2] = conditions: ˜10 mg/ml on the skin; as shown in U.S. 20080227857; cited from earlier work
[3] = system: dorsal surface of the tongue; conditions: average of 6 subjects, filter paper on tongue; Watson et al.; cited from earlier work

Compound | Eyelids/Ocular Surface (min), duration of cooling (ocular surface) [min] | Philtrum Skin (min), duration of cooling (philtrum skin [1]) [min] | Chili-Pepper Sauce Test (pharyngeal surface) | other results
CC(C)OC(=O)[C@@H](C)NC(=O)[C@@H]1C[C@H](C)CC[C@H]1C(C)C [D-Ala-OiPr, (R)-2-[((1R,2S,5R)-2-isopropyl-5-methyl-cyclohexanecarbonyl)-amino]-propionic acid isopropyl ester] | 360 | 34 | ++ | cooling action of ODT on the pharyngeal surface (cough; Study 6, ODT): robust cooling action; effectiveness in reducing cough (cough; Study 6, ODT 2.0 to 2.5 mg, 14 adult males with cough): 100%; skin or eye irritancy (philtrum skin [1]; in vivo): without skin or eye irritancy
CNC(=O)C(C)(C(C)C)C(C)C [WS-23] | – | – | – | sensory irritation in oral cavity (oral cavity / oropharynx): some sensory irritation; duration / onset of action on the skin (philtrum skin [2]): short duration of action (less than 1 hour) at ˜10 mg/ml on the skin or slow onset (more than 5 minutes)
COc1ccc(NC(=O)[C@@H]2C[C@H](C)CC[C@H]2C(C)C)cc1 [WS-12] | – | – | – | duration / onset of action on the skin (philtrum skin [2]): short duration of action (less than 1 hour) at ˜10 mg/ml on the skin or slow onset (more than 5 minutes)
CCNC(=O)C1CC(C)CCC1C(C)C (stereo not drawn) [WS-3] | – | – | – | sensory irritation in oral cavity (oral cavity / oropharynx): some sensory irritation; duration / onset of action on the skin (philtrum skin [2]): short duration of action (less than 1 hour) at ˜10 mg/ml on the skin or slow onset (more than 5 minutes)
CCCCOC(=O)C(C)NC(=O)[C@@H]1C[C@H](C)CC[C@H]1C(C)C (stereo partly drawn) [D-Ala-OnBu] | 40 | 80 | 0 | –
CCOC(=O)C(C)NC(=O)[C@@H]1C[C@H](C)CC[C@H]1C(C)C (stereo partly drawn) [L-Ala-OiPr] | 15 | 27 | 0 | –
CC1CCC(C(C)C)C(O)C1 (single isomer, unassigned; (-)) [(−)-menthol, reference compound] | – | – | – | Threshold, μg (cooling on tongue) [3]: 0.25 µg; Acts for >1 hour at 40 mM (philtrum skin [1]; 40 mM ointment on skin): no; "perfect" cooling experience (philtrum skin [1]; Table 2 summary): no; Cooling on skin of face (philtrum skin [1]; Table 2 summary): yes; Eye Irritancy (philtrum skin [1]; Table 2 summary): yes; duration of cooling action of ODT (oral cavity / oropharynx; ODT containing 5 to 10 mg): less than 10 minutes; Cooling on tongue (oral cavity / oropharynx; Table 2 summary): yes
CCCCOC(=O)CNC(=O)[C@@H]1C[C@H](C)CC[C@H]1C(C)C [Gly-OnBu] | 35 | 38 | 0 | –
CCCOC(=O)C(C)NC(=O)[C@@H]1C[C@H](C)CC[C@H]1C(C)C (stereo partly drawn) [D-Ala-OnPr] | 65 | 108 | + | –
CCOC(=O)C(C)NC(=O)[C@@H]1C[C@H](C)CC[C@H]1C(C)C (stereo partly drawn) [L-Ala-OnBu] | 0 | 0 | 0 | –
CCCOC(=O)CNC(=O)[C@@H]1C[C@H](C)CC[C@H]1C(C)C [Gly-OnPr] | 54 | 42 | 0 | –
CCOC(=O)C(C)NC(=O)[C@@H]1C[C@H](C)CC[C@H]1C(C)C (stereo partly drawn) [L-Ala-OnPr] | 10 | 22 | 0 | –
